Measured values published in PubChem BioAssay (NCI).
Where “and” joins values, the source holds several entries; their conditions need not be identical. Equal entries are not always repeated.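 Where inhibition never reached the appropriate level, the endpoint shown equals the highest concentration tested. Otherwise, values were interpolated linearly from a five-concentration, 48-hour dose response in 96-well plates. GI50 marks 50% less growth. TGI marks complete inhibition of growth.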

Assays:
Assay in all cases: NCI anticancer screen, dose series, 48 h
M14 melanoma = tested on: M14 melanoma
MDA-MB-435 = tested on: MDA-MB-435
RPMI-8226 leukemia = tested on: RPMI-8226 leukemia
SN12C renal = tested on: SN12C renal
OVCAR-3 ovarian = tested on: OVCAR-3 ovarian
SK-MEL-5 melanoma = tested on: SK-MEL-5 melanoma
NCI-H460 lung = tested on: NCI-H460 lung
HL-60(TB) leukemia = tested on: HL-60(TB) leukemia
U251 CNS = tested on: U251 CNS
UACC-62 melanoma = tested on: UACC-62 melanoma
SNB-78 CNS = tested on: SNB-78 CNS
SF-295 CNS = tested on: SF-295 CNS
A549 NSCLC = tested on: A549 NSCLC
PC-3 prostate = tested on: PC-3 prostate
SK-MEL-2 melanoma = tested on: SK-MEL-2 melanoma
A498 renal = tested on: A498 renal
MDA-MB-231 breast = tested on: MDA-MB-231 breast
COLO 205 colon = tested on: COLO 205 colon
CCRF-CEM leukemia = tested on: CCRF-CEM leukemia
LOX IMVI melanoma = tested on: LOX IMVI melanoma
HOP-62 NSCLC = tested on: HOP-62 NSCLC
MOLT-4 leukemia = tested on: MOLT-4 leukemia
HCT-15 colon = tested on: HCT-15 colon
DMS 114 small cell lung = tested on: DMS 114 small cell lung
DMS 273 small cell lung = tested on: DMS 273 small cell lung
SF-539 CNS = tested on: SF-539 CNS
M19-MEL melanoma = tested on: M19-MEL melanoma
SNB-19 CNS = tested on: SNB-19 CNS
MCF7 breast = tested on: MCF7 breast
UACC-257 melanoma = tested on: UACC-257 melanoma
ACHN renal = tested on: ACHN renal
DU-145 prostate = tested on: DU-145 prostate
HCT-116 colon = tested on: HCT-116 colon
KM12 colon = tested on: KM12 colon
IGROV1 ovarian = tested on: IGROV1 ovarian
OVCAR-4 ovarian = tested on: OVCAR-4 ovarian
SK-MEL-28 melanoma = tested on: SK-MEL-28 melanoma
MDA-N = tested on: MDA-N
786-0 renal = tested on: 786-0 renal
SK-OV-3 ovarian = tested on: SK-OV-3 ovarian
HT29 colon = tested on: HT29 colon
MALME-3M melanoma = tested on: MALME-3M melanoma
UO-31 renal = tested on: UO-31 renal
HOP-92 NSCLC = tested on: HOP-92 NSCLC
EKVX NSCLC = tested on: EKVX NSCLC
SW-620 colon = tested on: SW-620 colon
NCI-H226 lung = tested on: NCI-H226 lung
NCI-H23 lung = tested on: NCI-H23 lung
K-562 leukemia = tested on: K-562 leukemia
KM20L2 colon = tested on: KM20L2 colon
HCC-2998 colon = tested on: HCC-2998 colon
CAKI-1 renal = tested on: CAKI-1 renal
DLD-1 colon = tested on: DLD-1 colon
HOP-18 NSCLC = tested on: HOP-18 NSCLC
BT-549 breast = tested on: BT-549 breast
XF 498 CNS = tested on: XF 498 CNS
T-47D breast = tested on: T-47D breast
SF-268 CNS = tested on: SF-268 CNS
OVCAR-5 ovarian = tested on: OVCAR-5 ovarian
RXF 393 renal = tested on: RXF 393 renal
LXFL 529 NSCLC = tested on: LXFL 529 NSCLC
SNB-75 CNS = tested on: SNB-75 CNS
NCI/ADR-RES ovarian = tested on: NCI/ADR-RES ovarian
SR leukemia = tested on: SR leukemia
OVCAR-8 ovarian = tested on: OVCAR-8 ovarian
TK-10 renal = tested on: TK-10 renal
HS 578T breast = tested on: HS 578T breast
NCI-H522 lung = tested on: NCI-H522 lung

COc1cc(C2C3=C(COC3=O)Oc3cc4c(cc32)OCO4)cc(OC)c1OC (configuration not stated)
GI50 (M14 melanoma): < 0.0181 µM | TGI (M14 melanoma): > 31.6 µM | GI50 (MDA-MB-435): 0.0485 µM | TGI (MDA-MB-435): 0.0804 µM and 0.291 µM | GI50 (RPMI-8226 leukemia): < 0.0176 µM | TGI (RPMI-8226 leukemia): > 31.6 µM | GI50 (SN12C renal): 0.037 µM | TGI (SN12C renal): 20.9 µM | TGI (OVCAR-3 ovarian): 0.0709 µM and 0.0883 µM | GI50 (SK-MEL-5 melanoma): < 0.0162 µM | TGI (SK-MEL-5 melanoma): 0.189 µM and 0.681 µM | GI50 (NCI-H460 lung): < 0.0185 µM | TGI (HL-60(TB) leukemia): 0.0502 µM and 0.0413 µM | GI50 (U251 CNS): < 0.0213 µM | TGI (UACC-62 melanoma): > 31.6 µM | TGI (SNB-78 CNS): 50.6 µM | TGI (SF-295 CNS): 0.0575 µM | GI50 (A549 NSCLC): < 0.0204 µM | TGI (A549 NSCLC): 14.2 µM | GI50 (PC-3 prostate): 0.0203 µM | TGI (PC-3 prostate): 0.313 µM | GI50 (SK-MEL-2 melanoma): 0.262 µM | GI50 (A498 renal): 0.0363 µM | TGI (A498 renal): 0.0186 µM | TGI (MDA-MB-231 breast): 0.694 µM | GI50 (COLO 205 colon): < 0.0138 µM | TGI (COLO 205 colon): 0.0929 µM and 0.0385 µM | GI50 (CCRF-CEM leukemia): 0.0221 µM | TGI (CCRF-CEM leukemia): 0.338 µM and 0.0625 µM | GI50 (LOX IMVI melanoma): 0.00994 µM | TGI (LOX IMVI melanoma): > 31.6 µM | GI50 (HOP-62 NSCLC): 0.02 µM | TGI (HOP-62 NSCLC): 2.14 µM | TGI (MOLT-4 leukemia): 15.1 µM | GI50 (HCT-15 colon): 0.0354 µM | TGI (DMS 114 small cell lung): 0.0384 µM and 0.0131 µM | TGI (DMS 273 small cell lung): 12.7 µM | GI50 (SF-539 CNS): 0.0149 µM | TGI (SF-539 CNS): 0.0497 µM and 0.0427 µM | TGI (M19-MEL melanoma): > 100 µM | GI50 (SNB-19 CNS): 0.0474 µM | TGI (SNB-19 CNS): 17.4 µM | GI50 (MCF7 breast): 0.0204 µM | TGI (UACC-257 melanoma): 2.86 µM | GI50 (ACHN renal): < 0.015 µM | TGI (ACHN renal): 16.4 µM | GI50 (DU-145 prostate): 0.022 µM | TGI (DU-145 prostate): 0.0875 µM and 0.0671 µM | TGI (HCT-116 colon): 0.235 µM and 1.89 µM | GI50 (KM12 colon): 0.0101 µM | TGI (KM12 colon): 0.144 µM | GI50 (IGROV1 ovarian): 0.0181 µM | TGI (IGROV1 ovarian): 13.3 µM | TGI (OVCAR-4 ovarian): 28.5 µM | GI50 (SK-MEL-28 melanoma): 11.1 µM | TGI (SK-MEL-28 melanoma): > 31.6 µM | TGI (MDA-N): 0.0532 µM | GI50 (786-0 renal): 0.0456 µM | GI50 (SK-OV-3 ovarian): 0.032 µM | TGI (SK-OV-3 ovarian): 13.2 µM | GI50 (HT29 colon): 0.0105 µM and 0.026 µM | TGI (HT29 colon): 0.0444 µM | GI50 (MALME-3M melanoma): 0.036 µM | GI50 (UO-31 renal): < 0.0315 µM | TGI (UO-31 renal): 16.1 µM | GI50 (HOP-92 NSCLC): < 0.0117 µM | TGI (HOP-92 NSCLC): 0.0882 µM and 0.0901 µM | GI50 (EKVX NSCLC): 0.66 µM | TGI (SW-620 colon): > 31.6 µM | TGI (NCI-H226 lung): 0.23 µM | GI50 (NCI-H23 lung): 0.028 µM | GI50 (K-562 leukemia): 0.032 µM | TGI (K-562 leukemia): 0.131 µM | TGI (KM20L2 colon): 0.0421 µM and 0.0283 µM | GI50 (HCC-2998 colon): 0.0214 µM | TGI (HCC-2998 colon): 0.062 µM | TGI (CAKI-1 renal): 0.134 µM | TGI (DLD-1 colon): > 100 µM | GI50 (HOP-18 NSCLC): > 100 µM | TGI (HOP-18 NSCLC): > 100 µM

C[C@]12C=CC(=O)C=C1[C@@H](F)C[C@H]1[C@@H]3CC[C@](O)(C(=O)CO)[C@@]3(C)C[C@H](O)[C@@]12F
TGI (M14 melanoma): > 100 µM | TGI (MDA-MB-435): > 100 µM | TGI (RPMI-8226 leukemia): > 100 µM | TGI (BT-549 breast): > 100 µM | TGI (SN12C renal): > 100 µM | TGI (OVCAR-3 ovarian): > 100 µM | TGI (SK-MEL-5 melanoma): > 100 µM | TGI (NCI-H460 lung): > 100 µM | TGI (HL-60(TB) leukemia): > 100 µM | TGI (U251 CNS): > 100 µM | TGI (UACC-62 melanoma): > 100 µM | TGI (XF 498 CNS): > 100 µM | TGI (SNB-78 CNS): > 100 µM | TGI (SF-295 CNS): > 100 µM | TGI (A549 NSCLC): > 100 µM | TGI (PC-3 prostate): > 100 µM | TGI (SK-MEL-2 melanoma): > 100 µM | TGI (A498 renal): > 100 µM | TGI (MDA-MB-231 breast): > 100 µM | TGI (COLO 205 colon): > 100 µM | TGI (T-47D breast): > 100 µM | TGI (CCRF-CEM leukemia): > 100 µM | TGI (SF-268 CNS): > 100 µM | TGI (LOX IMVI melanoma): > 100 µM | TGI (OVCAR-5 ovarian): > 100 µM | TGI (HOP-62 NSCLC): > 100 µM | TGI (RXF 393 renal): > 100 µM | TGI (MOLT-4 leukemia): > 100 µM | TGI (HCT-15 colon): > 100 µM | TGI (DMS 114 small cell lung): > 100 µM | TGI (DMS 273 small cell lung): > 100 µM | TGI (SF-539 CNS): > 100 µM | TGI (M19-MEL melanoma): > 100 µM | TGI (SNB-19 CNS): > 100 µM | TGI (MCF7 breast): > 100 µM | TGI (UACC-257 melanoma): > 100 µM | TGI (ACHN renal): > 100 µM | TGI (DU-145 prostate): > 100 µM | TGI (HCT-116 colon): > 100 µM | TGI (KM12 colon): > 100 µM | TGI (IGROV1 ovarian): > 100 µM | TGI (OVCAR-4 ovarian): > 100 µM | TGI (SK-MEL-28 melanoma): > 100 µM | TGI (MDA-N): > 100 µM | TGI (786-0 renal): > 100 µM | TGI (SK-OV-3 ovarian): > 100 µM | TGI (HT29 colon): > 100 µM | TGI (LXFL 529 NSCLC): > 100 µM | TGI (SNB-75 CNS): > 100 µM | TGI (NCI/ADR-RES ovarian): > 100 µM | TGI (MALME-3M melanoma): > 100 µM | TGI (SR leukemia): > 100 µM | TGI (OVCAR-8 ovarian): > 100 µM | TGI (UO-31 renal): > 100 µM | TGI (HOP-92 NSCLC): > 100 µM | TGI (EKVX NSCLC): > 100 µM | TGI (TK-10 renal): > 100 µM | TGI (SW-620 colon): > 100 µM | TGI (NCI-H226 lung): > 100 µM | TGI (NCI-H23 lung): > 100 µM | TGI (HS 578T breast): > 100 µM | TGI (K-562 leukemia): > 100 µM | TGI (KM20L2 colon): > 100 µM | TGI (HCC-2998 colon): > 100 µM | TGI (CAKI-1 renal): > 100 µM | TGI (NCI-H522 lung): > 100 µM | TGI (DLD-1 colon): > 100 µM
